As a reminder, the IC50 is the point on the concentration scale where inhibition reaches its midpoint.

What all share (experiment): TAG hydrolase assay, humanized mouse ATGL variants
Holding throughout (assay type): biochemical

Experiment [1] deals with T1, mouse ATGL I69F/T93I/C97F/T146G quadruple mutant (Mus musculus, UniProt Q8BJ56, C97F/I69F/T146G/T93I).
T1 construct: host or cells: Expi293 cells, cell lysate
To be noted: I69F/T93I/C97F/T146G quadruple mutant of mouse ATGL. The text has this:
(§1) According to our 3D model, aa T93 and C97 are located in close spatial proximity to I69. […] According to our 3D models, the overall topologies of the minimal active domains of mouse and human ATGL are identical, with S47 and D166 as active site residues in close spatial proximity (depicted as green sticks, Figure 6d,f). Residues S10–L178 (depicted in blue for mouse and pink for human) build a relatively compact half of the protein, while residues K179–L254 (depicted in gray) are less compact. The minimal active domain of both mouse and human ATGL is predicted to have a large, two-pronged fork cavity. The “left,” shallow prong is formed mainly by residues S10–L17 and S170–L254. The “right,” deeper prong is formed by five different helices (depicted in light blue and pink for mouse and human ATGL, respectively). The first helix is assembled by the N-terminal residues G16-E31. […] form three other helices and residues L137–F147 assemble a short helix with an adjacent unstructured stretch. In the orientation shown in Figure 6d,f, the active site is located in the middle part of the cavity connecting both prongs to the exterior. I69, C97, T146, and their human counterparts F69, F97, and G146, are all located in the right prong of the cavity. T(G)146 is located near the active site, while I(F)69 and C(F)97 are located on the opposite side of the cavity in close spatial proximity (Figure 6e,g). Our 3D homology models indicate that these residues change the widths and depths of the right prong, which can explain their crucial contribution to inhibitor selectivity and efficacy.
(§2) Figure 6 Identification of the molecular scaffold determining species selectivity. (a) Schematic view of mouse ATGL variants, which are sensitive to NG-497 inhibition. Humanized aa are indicated in red and nonidentical aa are indicated in dark blue. (b) Dose-dependent inhibition of the I69F/T146G double mutant, the I69F/T93I/C97F/T146G quadruple mutant, and human ATGL. (c) Dose-dependent inhibition of triple mutants I69F/T93I/T146G and I69F/C97F/T146G, and human ATGL. IC50 values are shown in the insets. […]

The target in experiment [2] is T2, mouse ATGL triple mutant I69F/C97F/T146G (Mus musculus, UniProt Q8BJ56, C97F/I69F/T146G).
T2 construct: host or cells: Expi293 cells, cell lysate
T2 sequence (Q8BJ56 whole entry I69F/C97F/T146G): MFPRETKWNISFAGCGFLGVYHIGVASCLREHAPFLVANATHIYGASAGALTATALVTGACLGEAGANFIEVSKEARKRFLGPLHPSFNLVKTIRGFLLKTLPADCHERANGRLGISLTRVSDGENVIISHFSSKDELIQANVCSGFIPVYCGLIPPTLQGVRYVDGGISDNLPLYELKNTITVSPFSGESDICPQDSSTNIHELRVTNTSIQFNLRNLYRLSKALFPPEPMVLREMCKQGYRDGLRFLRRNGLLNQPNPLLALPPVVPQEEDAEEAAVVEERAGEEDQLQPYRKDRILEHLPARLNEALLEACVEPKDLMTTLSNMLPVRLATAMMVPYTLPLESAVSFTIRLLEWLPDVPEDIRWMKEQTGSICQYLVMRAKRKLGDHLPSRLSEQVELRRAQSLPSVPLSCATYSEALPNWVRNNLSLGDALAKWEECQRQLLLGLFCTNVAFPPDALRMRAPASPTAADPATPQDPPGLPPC
To be noted: I69F/C97F/T146G triple mutant of mouse ATGL.
From the text: as §1, §2

The target in experiment [3] is T3, mouse ATGL triple mutant I69F/T93I/T146G (Mus musculus, UniProt Q8BJ56, I69F/T146G/T93I).
T3 construct: host or cells: Expi293 cells, cell lysate
T3 sequence (Q8BJ56 whole entry I69F/T93I/T146G): as the sequence (Q8BJ56 whole entry I69F/C97F/T146G) above, with T93I, F97C counted along it
To be noted: I69F/T93I/T146G triple mutant of mouse ATGL.
From the text: as §1, §2

T1 sequence (Q8BJ56 whole entry I69F/T93I/C97F/T146G): as the sequence (Q8BJ56 whole entry I69F/C97F/T146G) above, with T93I counted along it

Turning to `CCOc1ccc(-c2cc(OC)cc(C(=O)OC(C)C)n2)cc1` [NG-497], the concentration for half-maximal inhibition (IC50) in experiment [1] was found to be 1600 ± 100 nM; in experiment [2], 1000 nM; in experiment [3], 9300 nM.

The record behind these values is paper PMC9011347, “Small-Molecule Inhibitors Targeting Lipolysis in Human Adipocytes” (Journal of the American Chemical Society, 2022).
